Data published in patent US7173004B2, “Macrocyclic isoquinoline peptide inhibitors of hepatitis C virus” (Bristol-Myers Squibb Company, priority 2003, dated 2007).

The compounds below were run against T1, HCV NS3/4A protease complex, BMS strain (genotype 1a) (UniProt P27958, C1454S/C1711G, species not given/STRAIN_BMS) (assay: Recombinant HCV NS3/4A protease complex FRET peptide assay, BMS strain). Conditions: NS3/4A BMS strain; activity range symbols.
T1 construct: b1001: DNA encoding the recombinant HCV NS3/4A protease complex (amino acids 1027 to 1711) ... a three-lysine solubilizing tail was added at the 3′-end of the NS4A coding region; fused on or other part: Three-lysine solubilising tail at the C-terminus of NS4A; A His tag is implied by the pET21b vector and Ni-NTA purification
Format: biochemical
How it was run: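 Recombinant NS3/4A (aa 1027–1711) from H77C, J4L6S or BMS strains, with C1454S and C1711G mutations and three-lysine tail, expressed in E. coli and Ni-NTA/gel-filtration purified to >90%. Inhibition of cleavage of a FRET peptide substrate measured.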

Q: With COc1ccc2c(OC3CC4C(=O)NC5(C(=O)NS(=O)(=O)C6CC6)CC5C=CCCCOCC(NC(=O)NC5CCCC5)C(=O)N4C3)nccc2c1 (centres unmarked) [Compound 87] as the compound, how does the IC50 read?
A: < 50 nM

Q: How did the IC50 turn out when COc1ccc2c(OC3CC4C(=O)NC5(C(=O)NS(=O)(=O)C6CC6)CC5C=CCCCOCC(NC(=O)NC(C)(C)C)C(=O)N4C3)nc(-c3ccc(N(C)C)cc3)cc2c1 (centres unmarked) [Compound 108] was run?
A: < 50 nM

Q: For COc1ccc2c(OC3CC4C(=O)NC5(C(=O)NS(=O)(=O)C6CC6)CC5C=CCCCOCC(NC(=O)OCC(C)(C)C)C(=O)N4C3)nccc2c1 (centres unmarked) [Compound 88], which IC50 is on record?
A: < 50 nM

Q: Which IC50 does the source give for COc1ccc2c(OC3CC4C(=O)NC5(C(=O)NS(=O)(=O)C6CC6)CC5C=CCCCOCC(NC(=O)OC5CCCC5)C(=O)N4C3)nccc2c1 (centres unmarked) [Compound 90] here?
A: < 50 nM

Q: With COc1ccc2c(OC3CC4C(=O)NC5(C(=O)NS(=O)(=O)C6CC6)CC5C=CCOCCCC(NC(=S)NC5CC5)C(=O)N4C3)nc(-c3ccccc3)cc2c1 (centres unmarked) [Compound 104] as the compound, how does the IC50 read?
A: < 50 nM

Q: Which IC50 does the source give for CC(C)(C)OC(=O)N[C@H]1CN(S(C)(=O)=O)CCC/C=C\[C@@H]2C[C@@]2(C(=O)NS(=O)(=O)C2CC2)NC(=O)[C@@H]2C[C@@H](Oc3nccc4ccccc34)CN2C1=O [Compound 153] here?
A: < 50 nM

Q: How did the IC50 turn out when COc1ccc2c(OC3CC4C(=O)NC5(C(=O)NS(=O)(=O)C6CC6)CC5C=CCOCCCC(NC(=O)N5CCCC5)C(=O)N4C3)nc(-c3ccccc3)cc2c1 (centres unmarked) [Compound 100] was run?
A: < 50 nM

Q: With CC(C)(C)OC(=O)NC1CN(C(=O)C2CC2)CCCC=CC2CC2(C(=O)NS(=O)(=O)C2CC2)NC(=O)C2CC(Oc3nccc4ccccc34)CN2C1=O (centres unmarked) [Compound 152] as the compound, how does the IC50 read?
A: < 50 nM

Q: Which IC50 does the source give for COc1ccc2c(OC3CC4C(=O)NC5(C(=O)NS(=O)(=O)C6CC6)CC5C=CCOCCCC(NC(=O)OC(C)C)C(=O)N4C3)nc(-c3ccccc3)cc2c1 (centres unmarked) [Compound 98] here?
A: < 50 nM

Q: COc1ccc2c(O[C@@H]3C[C@H]4C(=O)N[C@]5(C(=O)NS(=O)(=O)C6CC6)C[C@H]5/C=C\CCCSC(C)(C)[C@H](NC(=O)OC(C)(C)C)C(=O)N4C3)nccc2c1 [Compound 80, (1S,4R,6S,14R,18R)-[7-cis-4-Cyclopropanesulfonylaminocarbonyl-13,13-dimethyl-18-(6-methoxyisoquinolin-1-yloxy)-2,15-dioxo-12-thia-3,16-diaza-tricyclo[14.3.0.0^4,6]nonadec-7-en-14-yl]carbamic acid, tert-butyl ester] was tested. Which IC50 did it give?
A: < 50 nM

Q: Which IC50 does the source give for COc1ccc2c(OC3CC4C(=O)NC5(C(=O)NS(=O)(=O)C6CC6)CC5C=CCCCOCC(NC(=O)OC5CCCC5)C(=O)N4C3)nc(-c3ccc(N(C)C)cc3)cc2c1 (centres unmarked) [Compound 110] here?
A: < 50 nM

Q: Which IC50 does the source give for COc1ccc2c(OC3CC4C(=O)NC5(C(=O)NS(=O)(=O)C6CC6)CC5C=CCCCOCC(NC(=O)N5CCCC5)C(=O)N4C3)nc(-c3ccc(N(C)C)cc3)cc2c1 (centres unmarked) [Compound 111] here?
A: < 50 nM

Q: How did the IC50 turn out when COc1ccc2c(OC3CC4C(=O)NC5(C(=O)NS(=O)(=O)C6CC6)CC5C=CCCCOCC(NC(=O)OC(C)C)C(=O)N4C3)nc(-c3ccccc3)cc2c1 (centres unmarked) [Compound 96] was run?
A: < 50 nM

Q: How did the IC50 turn out when COc1ccc2c(OC3CC4C(=O)NC5(C(=O)NS(=O)(=O)C6CC6)CC5C=CCOCCCC(NC(=O)NC(C)(C)C)C(=O)N4C3)nc(-c3ccccc3)cc2c1 (centres unmarked) [Compound 102] was run?
A: < 50 nM

Q: Which IC50 does the source give for CC(C)(C)CC(C)(C)NC(=O)NC1CCCCCC=CC2CC2(C(=O)NS(=O)(=O)C2CC2)NC(=O)C2CC(Oc3nccc4ccccc34)CN2C1=O (centres unmarked) [Compound 129] here?
A: < 50 nM

Q: For COc1ccc2c(OC3CC4C(=O)NC5(C(=O)NS(=O)(=O)C6(C)CC6)CC5C=CCCCSCC(NC(=O)OC(C)(C)C)C(=O)N4C3)nccc2c1 (centres unmarked) [Compound 115], which IC50 is on record?
A: < 50 nM

Q: COc1ccc2c(OC3CC4C(=O)NC5(C(=O)NS(=O)(=O)C6CC6)CC5C=CCCCCCC(NC(=O)NC(C)(C)C)C(=O)N4C3)nccc2c1 (centres unmarked) [Compound 135] was tested. Which IC50 did it give?
A: < 50 nM

Q: Which IC50 does the source give for CC(C)(C)OC(=O)N[C@H]1CN(S(=O)(=O)c2ccccc2[N+](=O)[O-])CCC/C=C\[C@@H]2C[C@@]2(C(=O)NS(=O)(=O)C2CC2)NC(=O)[C@@H]2C[C@@H](Oc3nccc4ccccc34)CN2C1=O [Compound 145] here?
A: < 50 nM

Q: With CC(C)(C)OC(=O)NC1CCCCCC=CC2CC2(C(=O)NS(=O)(=O)C2CC2)NC(=O)C2CC(Oc3nccc4c(Cl)cccc34)CN2C1=O (centres unmarked) [Compound 130] as the compound, how does the IC50 read?
A: < 50 nM

Q: For CC(C)(C)COC(=O)N1CCCC=CC2CC2(C(=O)NS(=O)(=O)C2CC2)NC(=O)C2CC(Oc3nccc4ccccc34)CN2C(=O)C(NC(=O)OC(C)(C)C)C1 (centres unmarked) [Compound 149], which IC50 is on record?
A: < 50 nM

Q: With COc1ccc2c(OC3CC4C(=O)NC5(C(=O)NS(=O)(=O)C6CC6)CC5C=CCCCCCC(NC(=O)OC(C)(C)C)C(=O)N4C3)nccc2c1F (centres unmarked) [Compound 132] as the compound, how does the IC50 read?
A: < 50 nM

Q: COc1ccc2c(OC3CC4C(=O)NC5(C(=O)NS(=O)(=O)C6CC6)CC5C=CCCCOCC(NC(=O)N5CCCC5)C(=O)N4C3)nc(-c3ccccc3)cc2c1 (centres unmarked) [Compound 93] was tested. Which IC50 did it give?
A: < 50 nM

Q: How did the IC50 turn out when CC(C)(C)NC(=O)N1CCC/C=C\[C@@H]2C[C@@]2(C(=O)NS(=O)(=O)C2CC2)NC(=O)[C@@H]2C[C@@H](Oc3nccc4ccccc34)CN2C(=O)[C@@H](NC(=O)OC(C)(C)C)C1 [Compound 150] was run?
A: < 50 nM

Q: With O=C(NC1CCCC1)NC1CCCCCC=CC2CC2(C(=O)NS(=O)(=O)C2CC2)NC(=O)C2CC(Oc3nccc4ccccc34)CN2C1=O (centres unmarked) [Compound 127] as the compound, how does the IC50 read?
A: < 50 nM

Q: Which IC50 does the source give for COc1ccc2c(OC3CC4C(=O)NC5(C(=O)NS(=O)(=O)C6CC6)CC5C=CCCCOCC(NC(=O)NC(C)(C)C)C(=O)N4C3)nccc2c1 (centres unmarked) [Compound 86] here?
A: < 50 nM

Q: How did the IC50 turn out when CC(C)(C)NC(=O)N[C@H]1CCCCC/C=C\[C@@H]2C[C@@]2(C(=O)NS(=O)(=O)C2CC2)NC(=O)[C@@H]2C[C@@H](Oc3nccc4ccccc34)CN2C1=O [Compound 126] was run?
A: < 50 nM

Q: How did the IC50 turn out when COc1ccc2c(OC3CC4C(=O)NC5(C(=O)NS(=O)(=O)C6CC6)CC5C=CCCCOCC(NC(=O)NC(C)(C)C)C(=O)N4C3)nc(-c3ccccc3)cc2c1 (centres unmarked) [Compound 92] was run?
A: < 50 nM

Q: With COc1ccc2c(OC3CC4C(=O)NC5(C(=O)NS(=O)(=O)C6CC6)CC5C=CCOCCCC(NC(=O)OC5CCCC5)C(=O)N4C3)nc(-c3ccccc3)cc2c1 (centres unmarked) [Compound 99] as the compound, how does the IC50 read?
A: < 50 nM

Q: Which IC50 does the source give for CC(=O)C(C)(C)OC(=O)NC1CCCCCC=CC2CC2(C(=O)NS(=O)(=O)C2CC2)NC(=O)C2CC(Oc3nccc4ccccc34)CN2C1=O (centres unmarked) [Compound 123] here?
A: < 50 nM

Q: How did the IC50 turn out when CC(=O)N1CCC/C=C\[C@@H]2C[C@@]2(C(=O)NS(=O)(=O)C2CC2)NC(=O)[C@@H]2C[C@@H](Oc3nccc4ccccc34)CN2C(=O)[C@@H](NC(=O)OC(C)(C)C)C1 [Compound 146] was run?
A: < 50 nM

Q: Which IC50 does the source give for COc1ccc2c(OC3CC4C(=O)NC5(C(=O)NS(=O)(=O)C6CC6)CC5C=CCCCSC(C)(C)C(NC(=O)NC5CCCC5)C(=O)N4C3)nccc2c1 (centres unmarked) [Compound 82] here?
A: < 50 nM

Q: Which IC50 does the source give for COc1ccc2c(OC3CC4C(=O)NC5(C(=O)NS(=O)(=O)C6CC6)CC5C=CCCCCCC(NC(=O)NC5CCCC5)C(=O)N4C3)nccc2c1 (centres unmarked) [Compound 136] here?
A: < 50 nM

Q: With COc1ccc2c(OC3CC4C(=O)NC5(C(=O)NS(=O)(=O)C6CC6)CC5C=CCCCOCC(NC(=O)OC(C)C)C(=O)N4C3)nccc2c1 (centres unmarked) [Compound 89] as the compound, how does the IC50 read?
A: < 50 nM

Q: How did the IC50 turn out when COc1ccc2c(OC3CC4C(=O)NC5(C(=O)NS(=O)(=O)C6CC6)CC5C=CCOCCCC(NC(=O)N5CCNC5=O)C(=O)N4C3)nc(-c3ccccc3)cc2c1 (centres unmarked) [Compound 106] was run?
A: < 50 nM

Q: With COc1ccc2c(OC3CC4C(=O)NC5(C(=O)NS(=O)(=O)C6CC6)CC5C=CCCCSC(C)(C)C(NC(=O)NC(C)(C)C)C(=O)N4C3)nccc2c1 (centres unmarked) [Compound 81] as the compound, how does the IC50 read?
A: < 50 nM

Q: CNc1ccc(-c2cc3cc(OC)ccc3c(OC3CC4C(=O)NC5(C(=O)NS(=O)(=O)C6CC6)CC5C=CCOCCCC(NC(=O)OC(C)(C)C)C(=O)N4C3)n2)cc1 (centres unmarked) [Compound 113] was tested. Which IC50 did it give?
A: < 50 nM

Q: Which IC50 does the source give for COc1ccc2c(OC3CC4C(=O)NC5(C(=O)NS(=O)(=O)C6CC6)CC5C=CCCCSC(C)(C)C(N)C(=O)N4C3)nccc2c1 (centres unmarked) [Compound 83] here?
A: 500 to 5000 nM

Q: COc1ccc2c(OC3CC4C(=O)NC5(C(=O)NS(=O)(=O)C6CC6)CC5C=CCCCSCC(N)C(=O)N4C3)nccc2c1 (centres unmarked) [Compound 117] was tested. Which IC50 did it give?
A: 50 to 500 nM

Q: How did the IC50 turn out when COc1ccc2c(OC3CC4C(=O)NC5(C(=O)NS(=O)(=O)C6CC6)CC5C=CCOCCCC(NC(=O)Nc5ccc(C#N)cc5)C(=O)N4C3)nc(-c3ccccc3)cc2c1 (centres unmarked) [Compound 105] was run?
A: < 50 nM

Q: For COC(=O)N1CCC/C=C\[C@@H]2C[C@@]2(C(=O)NS(=O)(=O)C2CC2)NC(=O)[C@@H]2C[C@@H](Oc3nccc4ccccc34)CN2C(=O)[C@@H](NC(=O)OC(C)(C)C)C1 [Compound 148], which IC50 is on record?
A: < 50 nM

Q: CCSC(=O)NC1CCCCCC=CC2CC2(C(=O)NS(=O)(=O)C2CC2)NC(=O)C2CC(Oc3nccc4ccccc34)CN2C1=O (centres unmarked) [Compound 118] was tested. Which IC50 did it give?
A: < 50 nM

Q: How did the IC50 turn out when CC1(COC(=O)NC2CCCCCC=CC3CC3(C(=O)NS(=O)(=O)C3CC3)NC(=O)C3CC(Oc4nccc5ccccc45)CN3C2=O)CC1 (centres unmarked) [Compound 122] was run?
A: < 50 nM

Q: CCC(C)(C)OC(=O)NC1CCCCCC=CC2CC2(C(=O)NS(=O)(=O)C2CC2)NC(=O)C2CC(Oc3nccc4ccccc34)CN2C1=O (centres unmarked) [Compound 125] was tested. Which IC50 did it give?
A: < 50 nM

Q: How did the IC50 turn out when CC(C)(OC(=O)NC1CCCCCC=CC2CC2(C(=O)NS(=O)(=O)C2CC2)NC(=O)C2CC(Oc3nccc4ccccc34)CN2C1=O)C(Cl)(Cl)Cl (centres unmarked) [Compound 124] was run?
A: < 50 nM

Q: Which IC50 does the source give for O=CNC1CCCCCC=CC2CC2(C(=O)NS(=O)(=O)C2CC2)NC(=O)C2CC(Oc3nccc4ccccc34)CN2C1=O (centres unmarked) [Compound 119] here?
A: < 50 nM

Q: How did the IC50 turn out when CC(C)NC(=O)NC1CCCCCC=CC2CC2(C(=O)NS(=O)(=O)C2CC2)NC(=O)C2CC(Oc3nccc4ccccc34)CN2C1=O (centres unmarked) [Compound 128] was run?
A: < 50 nM

Q: Which IC50 does the source give for COc1ccc2c(OC3CC4C(=O)NC5(C(=O)NS(=O)(=O)C6CC6)CC5C=CCOCCCC(NC(=O)OC(C)(C)C)C(=O)N4C3)nc(-c3ccc(N(C)C=O)cc3)cc2c1 (centres unmarked) [Compound 114] here?
A: < 50 nM
